Our source for the Ki values is patent publication US20040142979A1, “Heteroarylsulfonylmethyl hydroxamic acids and amides and their use as protease inhibitors” (priority 2002, published 2004).

In assay [1] the target is T1, Human recombinant MMP-1 (Homo sapiens, UniProt P03956).
T1 construct: made in house; host or cells: MMP-1-transfected HT-1080 cells (spent media)
T1 sequence (P03956 100-469): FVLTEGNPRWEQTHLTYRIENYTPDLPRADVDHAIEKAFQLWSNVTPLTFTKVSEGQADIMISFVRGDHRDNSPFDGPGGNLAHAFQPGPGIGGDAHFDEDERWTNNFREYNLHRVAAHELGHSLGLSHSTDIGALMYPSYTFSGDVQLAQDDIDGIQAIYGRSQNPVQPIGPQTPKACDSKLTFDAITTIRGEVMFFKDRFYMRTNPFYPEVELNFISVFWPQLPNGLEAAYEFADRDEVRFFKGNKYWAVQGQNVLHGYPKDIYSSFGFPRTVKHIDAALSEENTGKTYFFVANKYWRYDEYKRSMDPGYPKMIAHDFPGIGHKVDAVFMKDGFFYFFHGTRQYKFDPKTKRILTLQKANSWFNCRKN
Nature of the assay: In vitro MMP inhibition analysis (fluorogenic peptide substrate), MMP-1. The class given is biochemical. As to conditions: human recombinant enzyme; 4 μM substrate (A); apparent Ki without substrate correction. As for the experimental part: (§1) Several compounds and salts were analyzed in an in vitro assay to determine their ability to inhibit the MMP cleavage of peptide substrates. Inhibition constant (Ki) were calculated from the assayed compound-MMP interactions.
(§2) Human recombinant MMP-1, MMP-2, MMP-9, MMP-13, and MMP-14 were used in this assay. All enzymes were prepared in Assignee's laboratories following usual laboratory procedures. Protocols for the preparation and use of these enzymes are available in the scientific literature. See, e.g., Enzyme Nomenclature (Academic Press, San Diego, Calif., 1992) (and the citations therein). See also, Freije et al., J. Biol. Chem., 269(24), 16766-16773 (1994).
The MMP-1 proenzyme was purified from the spent media of MMP-1-transfected HT-1080 cells provided by Dr. Harold Welgus of Washington University (St. Louis, Mo.). The protein was purified on a zinc chelating column.
(§3) All MMPs were activated using 4-aminophenylmercuric acetate (“APMA”, Sigma Chemical, St. Louis, Mo.) or trypsin. MMP-9 also was activated using human recombinant MMP-3 (purified in Assignee's laboratory following standard cloning and purification techniques).
(§4) The following fluorogenic, methoxycoumarin-containing polypeptide substrate (A) was used in the MMP inhibition assays:
(§5) MCA-ArgProLeuGlyLeuDpaAlaArgGluArgNH2 (A)
(§6) “MCA” is 7-methoxycoumarin-4-yl acetyl. Substrate (A) was prepared Assignee's laboratory. In the absence of MMP inhibitory activity, the substrate is cleaved at the Gly-Leu peptide bond. This cleavage separates the highly fluorogenic peptide from the 2,4-dinitrophenyl quencher, thus resulting in increase of fluorescent intensity.
(§7) The stock solutions of the assayed compounds and salts were prepared in 1% dimethyl sulfoxide (DMSO). These stock solutions were diluted in Buffer A (100 mM Tris-HCl, 100 mM NaCl, 10 mM CaCl2, 0.05% polyoxyethylene 23 lauryl ether, pH 7.5) to obtain solutions with different compound concentrations, i.e., assay solutions with different concentrations of the assayed MMP inhibitory compound. The experiment controls contained the same amount of Buffer A/DMSO as the assayed sample, but contained none of the tested compound or salt.
(§8) The assays from which the Ki determinations were made were performed as follows. The assayed compound samples were incubated in separate wells of untreated white polystyrene plates (Nunc Nalgene International, Rochester, N.Y.), and analyzed on a Tecan SpectraFlour Plus plate reader. The excitation wavelength was 330 nm, and the emission wavelength -420 nm. All samples (assayed compounds and controls) were incubated in separate plate wells at room temperature for 1 hr in the presence of 4 μM of MMP substrate (A). In the absence of MMP inhibitory activity, substrate (A) was cleaved at the Gly-Leu bond resulting in an increase of relative fluorescence. Inhibition was observed as a reduced rate of this increase in relative fluorescence. […] This protocol is a modification of method by Knight et al., FEBS Lett., 296(3), 263-266 (1992). Apparent inhibitory constants were determined by non-linear regression of reaction velocity as a function of inhibitor and enzyme concentration using Morrison's equation, as described by Kuzmic, P., et al., Anal. Biochem., 286(1):45-50 (2000). Modifications were made in the non-linear regression method to allow a common control reaction rate and effective enzyme concentration to be shared between all dose-response relationships on a given assay plate. Since the substrate concentration was chosen to be at or below the Km, the apparent Ki's from this analysis were reported as Ki's without correction for the influence of substrate.
The above protocols were used to determine MMP inhibition Ki constants for the compounds in Examples 1, 2, and 4-42 above. All Ki values in Table 3 are given in nM units.

Assay [2] concerns the target T2, Human recombinant MMP-13 (Homo sapiens, UniProt P45452).
T2 construct: made in house; host or cells: baculovirus / insect cells
Nature of the assay: In vitro MMP inhibition analysis (fluorogenic peptide substrate), MMP-13. Format: biochemical. As to conditions: human recombinant enzyme; 4 μM substrate (A); apparent Ki without substrate correction. As to the method:
as §1, §2
The MMP-13 was obtained as a proenzyme from a full-length cDNA clone using baculovirus, as described by V. A. Luckow, “Insect Cell Expression Technology,” Protein Engineering: Principles and Practice, pp. 183-218 (edited by J. L. Cleland et al., Wiley-Liss, Inc., 1996). The expressed proenzyme was first purified over a heparin agarose column, and then over a chelating zinc chloride column. The proenzyme was then activated by APMA for use in the assay. […] See also, O'Reilly et al, Baculovirus Expression Vectors: A Laboratory Manual (W. H. Freeman and Co., New York, N.Y., 1992). See also, King et al., The Baculovirus Expression System: A Laboratory Guide (Chapman & Hall, London, England, 1992).
as §3, §4, §5, §6, §7
as §8, with “Modifications were made in the non-linear regression method to allow a common control reaction rate and effective enzyme concentration to be shared between all dose-response relationships on a given assay plate.” left out
All Ki values in Table 3 are given in nM units.

With `CCCCOc1ccc(-c2ccc(S(=O)(=O)C3(C(=O)NO)CCOCC3)s2)cc1` [Example 43], the Ki in assay [1] is more than 1250 nM; in assay [2], 0.127 nM.

As to `O=C(NO)C1(S(=O)(=O)c2ccc(-c3ccc(OC(F)(F)C(F)F)cc3)s2)CCOCC1` [Example 44], the Ki in assay [1] is 1120 nM; in assay [2], 0.134 nM.

For the compound `CCCCCc1ccc(-c2ccc(S(=O)(=O)C3(C(=O)NO)CCOCC3)cn2)cc1` [Example 45], the Ki in assay [1] is more than 10000 nM; in assay [2], 1.19 nM.

On to `O=C(NO)C1(S(=O)(=O)c2ccc(-c3ccc(OCC(F)(F)F)cc3)nc2)CCOCC1` [Example 46], for which the Ki in assay [1] came to 4340 nM; in assay [2], 0.169 nM.

Consider `O=C(NO)C1(S(=O)(=O)c2ccc(-c3ccc(OC(F)(F)C(F)F)cc3)nc2)CCOCC1` [Example 47], for which the Ki was found to be 1490 nM in assay [1] and 0.306 nM in assay [2].

As to `O=C(NO)C1(S(=O)(=O)c2ccc(-c3ccc(OC(F)(F)C(F)F)cc3)nc2)CCOCC1` [Example 48], the Ki in assay [1] was found to be 1240 nM; in assay [2] it was 0.192 nM.

`O=C(NO)C1(S(=O)(=O)c2ccc(-c3ccc(CCC(F)(F)C(F)(F)F)cn3)s2)CCOCC1` [Example 49]: the figures for the Ki in assay [1] and in assay [2] were more than 10000 nM and 0.822 nM, respectively.

For `O=C(NO)C1(S(=O)(=O)c2ccc(-c3ccc(C(F)(F)F)cn3)s2)CCOCC1` [Example 50], the Ki was more than 10000 nM in assay [1] and 10.3 nM in assay [2].

For the compound `O=C(NO)C1(S(=O)(=O)c2ccc3nc(-c4ccc(OC(F)(F)F)cc4)sc3c2)CCOCC1` [Example 51], the Ki in assay [1] was 6530 nM; in assay [2], 0.275 nM.

Regarding `CCCCc1ccc(C(=O)C2CCN(c3nc4ccc(S(=O)(=O)C5(C(=O)NO)CCOCC5)cc4s3)CC2)s1` [Example 52], the Ki was more than 10000 nM in assay [1] and 1.58 nM in assay [2].

For the compound `CCCc1ccc(-c2nc3ccc(S(=O)(=O)C4(C(=O)NO)CCOCC4)cc3s2)cc1` [Example 53], the Ki is more than 10000 nM in assay [1] and 0.314 nM in assay [2].

As for `CC(C)Cc1ncc(-c2nc3ccc(S(=O)(=O)C4(C(=O)NO)CCOCC4)cc3s2)s1` [Example 54], the Ki in assay [1] was more than 10000 nM; in assay [2], 2.73 nM.

Take `O=C(NO)C1(S(=O)(=O)c2ccc3nc(-c4cccc(C(F)(F)F)c4)sc3c2)CCOCC1` [Example 55]: the figures for the Ki in assay [1] and in assay [2] were more than 10000 nM and 177 nM, respectively.

Regarding `O=C(NO)C1(S(=O)(=O)c2ccc3nc(N4CCC(Oc5ccc(OC(F)(F)F)cc5)CC4)sc3c2)CCOCC1` [Example 56], the Ki in assay [1] was more than 10000 nM; in assay [2], 3.43 nM.

Consider `O=C(NO)C1(S(=O)(=O)c2ccc3nc(-c4ccc(C(F)(F)F)cc4)sc3c2)CCOCC1` [Example 57], for which the Ki in assay [1] is more than 10000 nM; in assay [2] it was 0.384 nM.

Turning to `CCc1ccc(-c2nc3ccc(S(=O)(=O)C4(C(=O)NO)CCOCC4)cc3s2)cc1` [Example 58], the Ki is more than 10000 nM in assay [1] and 0.336 nM in assay [2].

For `O=C(NO)C1(S(=O)(=O)c2ccc3nc(-c4ccc(Cl)s4)sc3c2)CCOCC1` [Example 59], the figures for the Ki in assay [1] and in assay [2] were more than 1250 nM and 0.588 nM, respectively.

Turning to `O=C(NO)C1(S(=O)(=O)c2ccc3nc(-c4ccc(F)c(F)c4)sc3c2)CCOCC1` [Example 60], the Ki in assay [1] was determined as 2840 nM; in assay [2] it was 1.54 nM.

`O=C(NO)C1(S(=O)(=O)c2ccc3nc(-c4ccc(F)cc4F)sc3c2)CCOCC1` [Example 61]: the Ki is more than 10000 nM in assay [1] and 2.94 nM in assay [2].

With `O=C(NO)C1(S(=O)(=O)c2ccc3nc(-c4ccsc4)sc3c2)CCOCC1` [Example 62], the results for the Ki in assay [1] and in assay [2] were 2020 nM and 1.36 nM, respectively.

`COCCN1CCC(C(=O)NO)(S(=O)(=O)c2ccc3nc(-c4ccc(OC(F)(F)F)cc4)sc3c2)CC1` [Example 63]: the Ki in assay [1] turned out to be 9160 nM; in assay [2], 0.309 nM.

In the case of `O=C(NO)C1(S(=O)(=O)c2ccc3nc(-n4cnc(-c5ccccc5)c4)sc3c2)CCOCC1` [Example 64], the Ki in assay [1] is more than 10000 nM; in assay [2], 22.1 nM.

Take `O=C(NO)C1(S(=O)(=O)c2ccc3nc(-c4ccc5c(c4)OCO5)sc3c2)CCOCC1` [Example 65]: the values for the Ki in assay [1] and in assay [2] were more than 1250 nM and 1.05 nM, respectively.

As to `CCOc1ccc(-c2nc3ccc(S(=O)(=O)C4(C(=O)NO)CCOCC4)cc3s2)cc1` [Example 66], the Ki in assay [1] is more than 312 nM; in assay [2], 0.082 nM.

Consider `O=C(NO)C1(S(=O)(=O)c2ccc3nc(-c4ccc(SC(F)(F)F)cc4)sc3c2)CCOCC1` [Example 67], for which the Ki was more than 10000 nM in assay [1] and 0.293 nM in assay [2].

For `O=C(NO)C1(S(=O)(=O)c2ccc(-c3ccc(CCC(F)(F)F)cc3)nc2)CCOCC1` [Example 68], the figures for the Ki in assay [1] and in assay [2] were more than 10000 nM and 0.721 nM, respectively.

In the case of `O=C(NO)C1(S(=O)(=O)c2ccc(-c3ccc(CCC(F)(F)C(F)(F)F)cc3)nc2)CCOCC1` [Example 69], the figures for the Ki in assay [1] and in assay [2] were more than 10000 nM and 0.531 nM, respectively.

Regarding `CCCCc1ccc(C(=O)C2CCN(c3ccc(S(=O)(=O)C4(C(=O)NO)CCOCC4)cn3)CC2)s1` [Example 70], the Ki is more than 10000 nM in assay [1] and 1.8 nM in assay [2].

For `CC(C)CN(C)C(=O)Cc1ccc(-c2ccc(S(=O)(=O)C3(C(=O)NO)CCOCC3)cn2)cc1` [Example 71], the Ki was more than 10000 nM in assay [1] and 1.93 nM in assay [2].

For the compound `O=C(Cc1ccc(-c2ccc(S(=O)(=O)C3(C(=O)NO)CCOCC3)cn2)cc1)N1CCCCC1` [Example 72], the Ki was more than 10000 nM in assay [1] and 1.59 nM in assay [2].
